# Experimental data from PubChem BioAssay (NCI).
#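 Interpolation was linear, between the two tested concentrations surrounding the appropriate level; five concentrations were tested over 48 hours in 96-well plates. TGI is the concentration that stops growth completely.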
# What was measured:
# Assay in all cases: NCI anticancer screen, dose series, 48 h
# A498 renal = tested on: A498 renal
# CCRF-CEM leukemia = tested on: CCRF-CEM leukemia
# EKVX NSCLC = tested on: EKVX NSCLC
# HL-60(TB) leukemia = tested on: HL-60(TB) leukemia
# HT29 colon = tested on: HT29 colon
# MALME-3M melanoma = tested on: MALME-3M melanoma
# NCI-H226 lung = tested on: NCI-H226 lung
# SF-539 CNS = tested on: SF-539 CNS
# SK-OV-3 ovarian = tested on: SK-OV-3 ovarian
# UO-31 renal = tested on: UO-31 renal
Structure (SMILES),TGI (A498 renal) [µM],TGI (CCRF-CEM leukemia) [µM],TGI (EKVX NSCLC) [µM],TGI (HL-60(TB) leukemia) [µM],TGI (HT29 colon) [µM],TGI (MALME-3M melanoma) [µM],TGI (NCI-H226 lung) [µM],TGI (SF-539 CNS) [µM],TGI (SK-OV-3 ovarian) [µM],TGI (UO-31 renal) [µM]
COC(=O)c1ccccc1CC1Cc2c(C)ccc(C)c2C1=O (stereo not drawn),71,52.8,> 100,55.6,61.6,57.5,> 100,> 100,> 100,> 100
CC(=O)N[C@@H](Cc1ccc(O)cn1)C(=O)NCc1ccc(Cl)cc1,> 100,> 100,> 100,> 100,> 100,> 100,> 100,> 100,> 100,> 100
CC(=O)OCC1OC(OCCCOP(=O)(OCCC#N)OCC2OC(n3cnc4c(N)ncnc43)C(OC(=O)c3ccccc3)C2OC(=O)c2ccccc2)C(OC(C)=O)C(OC(C)=O)C1OC(C)=O (stereo not drawn),> 100,> 100,> 100,> 100,> 100,5.53,> 100,> 100,> 100,> 100
Nc1nc(Sc2ccc([N+](=O)[O-])c3nonc23)c2[nH]cnc2n1,13.8,2.13,19,4.86,20.9,5.03,11.3,14.8,9.95,2.07
CNC(=O)[C@H](Cc1ccccc1)NC(=O)N(CCC#N)CCN(C(=O)N[C@@H](Cc1ccccc1)C(=O)OC)c1ccccc1,> 100,> 100,> 100,> 100,> 100,> 100,> 100,> 100,> 100,> 100
Brc1ccc2[nH]c3c(C4=NCCC4)nccc3c2c1,> 49.2,> 30.1,57.3,18.6,> 38.7,16.1,26.4,> 25.4,> 100,37
CC1OC(OC2C(O)CC(OC3C(O)CC(OC4CCC5(C)C(CCC6C5CCC5(C)C(C7=CC(=O)OC7)C(O)CC65O)C4)OC3C)OC2C)CC(O)C1O (stereo not drawn),0.908,> 100,0.63,1.23,0.886,0.816,2.14,0.217,1.31,1.15
COc1cccc(NC(=O)CC(=O)NN)c1,> 100,> 100,> 100,> 100,> 100,> 100,> 100,> 100,> 100,> 100
Cc1ccc(C(=O)N/N=C(\N=Nc2ccc([N+](=O)[O-])cc2)c2ccc(N(CCC#N)CCC#N)cc2C)cc1,> 100,> 100,> 100,65.7,> 100,> 100,> 100,> 100,> 100,> 100
O=C(NNC(=O)c1ccco1)c1ccco1,> 100,> 100,> 100,> 100,> 100,> 100,> 100,> 100,> 100,> 100
Nc1nc(N)c2nc(CN(C=O)c3ccc(C(=O)O)cc3)cnc2n1,> 79.9,> 100,> 100,> 100,> 100,> 100,> 100,> 100,> 100,> 100
COC(=O)c1ccccc1C1CN=NC12Cc1ccc(C)cc1C2=O (stereo not drawn),> 100,> 100,> 100,> 100,> 100,> 100,> 100,> 100,> 100,> 100
NC(=S)NNCC(=O)CC(O)(C(F)(F)F)C(F)(F)Cl (stereo not drawn),> 100,> 100,> 100,> 100,> 100,> 100,> 100,> 100,> 100,> 100
CCN(CC)c1c(C(C)(C)C)c(=O)n2ccsc2c1OC(C)=O,33.6,> 100,29.3,> 100,28.4,25.8,29.2,33.3,36,31.7
O=c1c(-c2nc3ccccc3c3ccccc3c2=O)nc2ccccc2c2ccccc12,> 100,86.8,> 100,58.5,> 100,> 100,> 100,55.3,> 100,> 100
O/N=C\c1c2c(cc3c1CCC3)CCC2,> 100,> 100,> 100,> 100,> 100,> 100,> 100,> 100,> 100,> 100
Cc1c2cc[n+](Cc3ccc(I)cc3)cc2c(C)c2c1[nH]c1ccccc12,> 25,9.51,7.85,1.11,> 25,1.81,5.27,> 15.8,> 13.5,15.8
S=c1ncc(-c2cncc(-c3cnc(=S)[nH]c3)n2)c[nH]1,> 100,> 100,> 100,> 100,> 100,> 100,> 100,> 100,> 100,> 100
Cc1nn2c(=O)c([N+](=O)[O-])c(/C=C/c3ccc(F)cc3)nc2s1,35.6,23.5,22.5,18.1,16.5,16.7,19,17.9,> 31.6,16.2
C/C(=C\C(=O)Nc1ccc2n[nH]nc2c1)Nc1ccc2n[nH]nc2c1,> 100,> 100,> 100,> 100,> 100,> 100,> 100,> 100,> 100,> 100
CC(=O)O[C@H]1[C@@H](N2CCOCC2)C[C@H]2[C@@H]3CC=C4C[C@@H](N5CCCC5)CC[C@]4(C)[C@H]3CC[C@@]21C,> 100,> 100,> 100,> 100,> 100,> 100,> 100,> 100,> 100,> 100
CCCOC(=O)c1cc(O)c(O)c(O)c1,> 100,> 100,> 100,> 100,> 100,> 100,> 100,70.9,> 100,> 100
CC1(C)N=C(C(N)=O)c2[nH]cnc2N1,> 100,> 100,> 100,> 100,> 100,> 100,> 100,> 100,> 100,–
NC1=Nc2cc(C(F)(F)F)ccc2Sc2nc3ccccc3n21,> 100,> 24.8,> 100,> 26,> 100,> 100,> 87.5,> 100,> 100,> 100
CCOP1(=O)CC(C)=C(Cl)C(OC)C1 (stereo not drawn),> 100,> 100,> 100,> 100,> 100,> 100,> 100,> 100,> 100,–
CSc1c(C(C)=O)c(O)n(-c2ccc(C)cc2)c(=O)c1C#N,> 100,> 100,> 100,> 100,> 100,> 100,> 100,> 100,> 100,> 100
CCOC(=O)N1c2ccccc2C(C)=CC(C)C1C (stereo not drawn),96.5,> 100,99,57.2,40.3,> 100,80.1,42.7,> 100,> 100
COc1ccc(-c2nc3ccccc3c(=O)[nH]2)cc1,> 100,> 100,> 100,> 100,> 100,> 100,> 100,> 100,> 100,> 100
CC(=O)c1csc2c1C(=O)c1ccccc1C2=O,> 100,4.01,18.6,19.5,4.5,1.7,3.42,5.65,> 100,6.13
